These results are taken from publication PMC4045209, “The two common polymorphic forms of human NRH-quinone oxidoreductase 2 (NQO2) have different biochemical properties” (Febs Letters, 2014).

Where two headings read alike, the source gives them in different places.

This assay addresses T1, NRH-quinone oxidoreductase 2 (NQO2-F47) (Homo sapiens, UniProt P16083, L47F).
T1 sequence (P16083 1-231 L47F): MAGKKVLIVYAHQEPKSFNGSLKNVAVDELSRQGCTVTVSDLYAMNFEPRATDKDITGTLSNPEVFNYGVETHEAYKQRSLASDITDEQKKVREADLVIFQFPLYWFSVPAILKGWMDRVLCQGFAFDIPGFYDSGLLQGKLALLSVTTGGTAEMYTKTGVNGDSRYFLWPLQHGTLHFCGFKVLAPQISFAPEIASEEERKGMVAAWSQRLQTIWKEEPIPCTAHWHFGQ
Description: thermal scanning fluorimetry KD,app (FAD fluorescence). In kind it is binding.

Consider `O=c1oc2ccccc2c(O)c1Cc1c(O)c2ccccc2oc1=O` [dicoumarol], for which the Kd (read-out: Kd) came out at 0.0337 ± 0.0026 mM. Consider `NC(=O)c1cccnc1` [nicotinamide], for which the Kd turned out to be 14.4 ± 1.1 mM.
